# In ChEMBL document CHEMBL1201862, “PubChem BioAssay data set” (2004):
# Active and inactive are the calls of the source.
# What was measured:
# Nonstructural protein 1 = Nonstructural protein 1 (Influenza A virus, UniProt Q194T2); type: functional, Influenza A virus (A/California/07/2009(H1N1))
# Genome polyprotein = Genome polyprotein (dengue virus type 2, UniProt P29990); test: Dengue-2 NS5 methyltransferase inhibitors, primary screen, biochemical, confirmation dose response (AID 588689); type: functional
# Genome polyprotein, sequence (P29990 2492-3391 limits assumed): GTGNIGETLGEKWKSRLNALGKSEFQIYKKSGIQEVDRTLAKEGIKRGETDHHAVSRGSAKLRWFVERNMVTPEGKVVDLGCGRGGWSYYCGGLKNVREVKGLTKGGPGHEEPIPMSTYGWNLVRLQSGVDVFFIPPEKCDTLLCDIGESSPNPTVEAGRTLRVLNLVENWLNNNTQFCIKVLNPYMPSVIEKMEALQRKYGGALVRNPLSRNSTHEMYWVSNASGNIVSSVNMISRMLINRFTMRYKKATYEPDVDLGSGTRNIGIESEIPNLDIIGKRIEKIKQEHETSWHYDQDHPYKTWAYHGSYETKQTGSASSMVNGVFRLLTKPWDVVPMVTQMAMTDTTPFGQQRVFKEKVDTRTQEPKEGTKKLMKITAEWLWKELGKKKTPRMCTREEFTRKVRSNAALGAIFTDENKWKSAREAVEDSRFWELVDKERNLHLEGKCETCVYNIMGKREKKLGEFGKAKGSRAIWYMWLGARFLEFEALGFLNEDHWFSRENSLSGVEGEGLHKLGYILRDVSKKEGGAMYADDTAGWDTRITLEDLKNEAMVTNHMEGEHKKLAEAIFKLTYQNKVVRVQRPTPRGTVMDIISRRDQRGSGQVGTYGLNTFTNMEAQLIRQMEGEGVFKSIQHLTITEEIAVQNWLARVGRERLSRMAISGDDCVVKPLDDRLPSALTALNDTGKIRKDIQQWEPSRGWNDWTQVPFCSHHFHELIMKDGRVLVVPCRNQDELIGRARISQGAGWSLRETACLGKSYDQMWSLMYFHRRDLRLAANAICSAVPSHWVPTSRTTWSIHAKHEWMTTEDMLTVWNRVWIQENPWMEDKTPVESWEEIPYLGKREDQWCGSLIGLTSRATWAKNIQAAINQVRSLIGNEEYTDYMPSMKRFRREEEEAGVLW
# Large T antigen = Large T antigen (Simian virus 40, UniProt P03070); type: functional, Betapolyomavirus macacae;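 also: Confirmatory-stage PubChem screen for compounds that inhibit SV40 T antigen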
# Large T antigen, sequence (P03070 whole entry): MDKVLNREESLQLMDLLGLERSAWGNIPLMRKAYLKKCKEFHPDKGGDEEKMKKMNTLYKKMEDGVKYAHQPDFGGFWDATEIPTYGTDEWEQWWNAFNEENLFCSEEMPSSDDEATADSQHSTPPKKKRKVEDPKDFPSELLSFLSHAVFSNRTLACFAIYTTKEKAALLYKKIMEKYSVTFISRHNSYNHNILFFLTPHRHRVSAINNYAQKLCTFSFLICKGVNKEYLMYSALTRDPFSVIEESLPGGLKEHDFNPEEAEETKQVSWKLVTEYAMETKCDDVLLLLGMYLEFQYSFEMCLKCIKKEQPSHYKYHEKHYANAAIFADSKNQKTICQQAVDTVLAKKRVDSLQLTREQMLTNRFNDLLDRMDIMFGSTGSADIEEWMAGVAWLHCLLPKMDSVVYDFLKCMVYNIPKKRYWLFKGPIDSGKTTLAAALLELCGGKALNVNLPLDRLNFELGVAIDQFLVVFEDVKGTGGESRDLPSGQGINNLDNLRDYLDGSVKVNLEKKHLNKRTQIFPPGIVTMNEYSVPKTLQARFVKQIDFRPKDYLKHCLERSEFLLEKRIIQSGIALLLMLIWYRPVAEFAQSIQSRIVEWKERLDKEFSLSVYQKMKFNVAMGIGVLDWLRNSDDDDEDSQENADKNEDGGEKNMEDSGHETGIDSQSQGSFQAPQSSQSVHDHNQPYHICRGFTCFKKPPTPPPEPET
# [1] = molecular target: FAD-linked sulfhydryl oxidase ALR (Homo sapiens, UniProt P55789); test: inhibitors of human ALR sulfhydryl oxidase, dose response, biochemical, H2O2 detection, luminescence, cherry-pick (AID 493248)
# FAD-linked sulfhydryl oxidase ALR, sequence (P55789 whole entry): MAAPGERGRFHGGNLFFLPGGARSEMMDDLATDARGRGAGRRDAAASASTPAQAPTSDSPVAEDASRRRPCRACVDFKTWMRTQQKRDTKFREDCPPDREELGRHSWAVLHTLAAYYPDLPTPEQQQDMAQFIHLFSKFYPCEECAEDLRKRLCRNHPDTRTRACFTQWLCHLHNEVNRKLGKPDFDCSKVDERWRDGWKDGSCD
# Cytochrome P450 2C9 [2] = molecular target: T1, Cytochrome P450 2C9 (Homo sapiens, UniProt P11712)
# T1 sequence (P11712 whole entry): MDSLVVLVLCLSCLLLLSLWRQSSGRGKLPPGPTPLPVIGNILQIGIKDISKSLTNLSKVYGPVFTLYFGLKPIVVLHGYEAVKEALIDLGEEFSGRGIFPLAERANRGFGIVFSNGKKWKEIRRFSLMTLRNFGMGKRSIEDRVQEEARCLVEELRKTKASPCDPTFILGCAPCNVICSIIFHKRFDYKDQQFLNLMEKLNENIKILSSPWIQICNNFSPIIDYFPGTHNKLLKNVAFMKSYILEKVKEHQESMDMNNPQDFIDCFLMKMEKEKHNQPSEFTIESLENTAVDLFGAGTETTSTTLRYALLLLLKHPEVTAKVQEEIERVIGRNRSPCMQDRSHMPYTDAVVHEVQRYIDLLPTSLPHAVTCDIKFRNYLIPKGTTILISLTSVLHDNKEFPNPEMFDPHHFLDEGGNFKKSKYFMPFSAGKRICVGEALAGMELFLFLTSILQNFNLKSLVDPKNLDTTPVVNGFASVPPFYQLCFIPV
# [3] = molecular target: T2, Replicative DNA helicase DnaB (Mycobacterium tuberculosis, UniProt P9WMR3); test: DnaB intein splicing inhibitors, dose response, biochemical, cell-free fluorescence (AID 449749); type: functional
# T2 sequence (P9WMR3 whole entry): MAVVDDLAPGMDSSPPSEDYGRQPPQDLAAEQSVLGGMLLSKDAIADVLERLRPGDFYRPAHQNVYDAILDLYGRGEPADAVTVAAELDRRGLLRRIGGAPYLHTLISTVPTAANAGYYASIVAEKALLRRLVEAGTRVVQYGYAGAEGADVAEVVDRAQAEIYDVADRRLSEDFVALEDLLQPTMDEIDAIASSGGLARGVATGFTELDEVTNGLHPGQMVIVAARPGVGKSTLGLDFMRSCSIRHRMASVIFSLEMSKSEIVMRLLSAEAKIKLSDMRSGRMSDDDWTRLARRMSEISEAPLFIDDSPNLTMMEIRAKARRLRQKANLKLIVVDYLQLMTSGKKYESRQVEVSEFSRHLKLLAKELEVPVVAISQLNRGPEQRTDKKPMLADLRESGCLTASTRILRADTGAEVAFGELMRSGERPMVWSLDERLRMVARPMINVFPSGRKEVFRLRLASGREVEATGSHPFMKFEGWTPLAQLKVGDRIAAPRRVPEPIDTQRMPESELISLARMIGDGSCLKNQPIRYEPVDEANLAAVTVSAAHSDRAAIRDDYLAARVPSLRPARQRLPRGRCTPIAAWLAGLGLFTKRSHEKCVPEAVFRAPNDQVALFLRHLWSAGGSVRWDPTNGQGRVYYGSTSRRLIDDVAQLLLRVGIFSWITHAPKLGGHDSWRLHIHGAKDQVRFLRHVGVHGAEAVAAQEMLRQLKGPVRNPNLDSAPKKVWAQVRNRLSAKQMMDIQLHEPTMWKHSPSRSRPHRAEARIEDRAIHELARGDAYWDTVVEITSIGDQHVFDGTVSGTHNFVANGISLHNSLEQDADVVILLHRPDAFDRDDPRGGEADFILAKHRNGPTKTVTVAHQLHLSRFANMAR
# Protein RecA = molecular target: T3, Protein RecA (Mycobacterium tuberculosis, UniProt P9WHJ3); test: Fluorescence Cell-Free Homogeneous Dose Retest to Identify Inhibitors of RecA-Intein Splicing Activity. [Related pubchem assays (depositor defined):AID2097, AID2223, AID489010, AID492950]; type: functional
# T3 sequence (P9WHJ3 whole entry): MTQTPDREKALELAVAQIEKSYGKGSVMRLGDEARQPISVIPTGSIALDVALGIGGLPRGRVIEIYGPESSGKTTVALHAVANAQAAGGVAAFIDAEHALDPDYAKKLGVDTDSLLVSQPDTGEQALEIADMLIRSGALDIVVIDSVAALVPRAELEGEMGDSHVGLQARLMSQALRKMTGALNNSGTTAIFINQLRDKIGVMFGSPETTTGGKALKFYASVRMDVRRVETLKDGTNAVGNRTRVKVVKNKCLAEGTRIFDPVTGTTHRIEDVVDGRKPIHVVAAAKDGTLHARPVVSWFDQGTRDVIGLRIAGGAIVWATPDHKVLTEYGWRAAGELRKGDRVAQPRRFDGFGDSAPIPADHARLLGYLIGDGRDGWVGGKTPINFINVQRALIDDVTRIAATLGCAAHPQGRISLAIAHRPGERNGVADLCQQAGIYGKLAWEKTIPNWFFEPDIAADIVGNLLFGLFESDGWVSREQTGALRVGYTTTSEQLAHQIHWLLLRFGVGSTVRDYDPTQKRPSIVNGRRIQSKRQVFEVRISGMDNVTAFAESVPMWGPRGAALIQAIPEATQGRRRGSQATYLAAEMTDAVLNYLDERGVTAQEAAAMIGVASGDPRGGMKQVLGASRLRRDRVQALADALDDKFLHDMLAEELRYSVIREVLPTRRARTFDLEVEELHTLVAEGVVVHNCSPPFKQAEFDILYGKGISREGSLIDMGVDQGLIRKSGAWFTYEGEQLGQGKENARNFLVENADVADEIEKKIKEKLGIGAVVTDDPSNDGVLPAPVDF
# [4] = growth suppression of beta-catenin-knockout colon cells, dose response, cell-based, HCT116, human colon tumor (AID 1045); type: functional;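 also: HCT116 colon tumor cells with beta catenin knocked out; cells exposed to compound for 60 hours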
# [5] = growth suppression of PTEN-null colon cells, dose response, cell-based, HCT116 PTEN knockout (AID 1047); type: functional;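 also: HCT116 colon tumor cells with PTEN knocked out; cells exposed to compound for 60 hours before readout; potency for loss of cell viability measured by luminescence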
# [6] = molecular target: Heat shock protein HSP 90-alpha (Homo sapiens, UniProt P07900); type: functional, organism-based
# [7] = molecular target: Eukaryotic translation initiation factor 4E (Mus musculus, UniProt P63073); test: eIF4E–eIF4G protein interaction inhibitors, dose response, biochemical, TR-FRET (AID 855); type: functional;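 also: potency for disrupting eIF4E binding to eIF4GI seen as loss of FRET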
# Eukaryotic translation initiation factor 4E, sequence (P63073 whole entry): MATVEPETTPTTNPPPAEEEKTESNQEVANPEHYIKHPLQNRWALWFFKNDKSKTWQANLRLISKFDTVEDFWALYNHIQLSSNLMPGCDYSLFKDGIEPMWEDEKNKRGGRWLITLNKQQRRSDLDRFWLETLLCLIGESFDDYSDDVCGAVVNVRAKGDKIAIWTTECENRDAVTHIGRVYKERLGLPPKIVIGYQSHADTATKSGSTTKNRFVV
# [8] = molecular target: T4, Ubiquitin-conjugating enzyme E2 N (Homo sapiens, UniProt P61088); type: functional;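 also: Dose-response confirmation in a TR-FRET assay detecting UBC13-driven polyubiquitin chain formation, inhibition measured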
# T4 sequence (P61088 whole entry): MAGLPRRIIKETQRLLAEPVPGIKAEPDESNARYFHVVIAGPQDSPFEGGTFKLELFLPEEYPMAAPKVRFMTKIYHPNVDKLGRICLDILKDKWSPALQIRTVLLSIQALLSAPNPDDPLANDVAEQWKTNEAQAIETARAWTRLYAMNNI
# cells [9] = type: functional, cell-based
# cells [10] = type: functional, cell-based; remark: listed apart in the source
# [11] = Luminescence Cell-Based Dose Retest to Confirm Inhibitors of Cancer Stem Cells. [Related pubchem assays (depositor defined):AID2717, AID2721]; type: functional; details: Homo sapiens
# [12] = microbe, parasite or virus in culture; type: functional; details: Mycobacterium tuberculosis
# Streptococcus = test: Group A Streptococcus viability loss, dose response, counter-screen for streptokinase expression inhibitor project, luminescence, BacTiterGlo (AID 1915); type: functional, organism-based;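 also: potency for reduction of bacterial viability or growth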
# [13] = system: Streptococcus sp. 'group A'; test: growth inhibition of control SK(-) GAS strain, dose response, counter-screen for streptokinase expression inhibitor project, luminescence, kanamycin, BacTiterGlo, confirmation (AID 1900); type: functional, organism-based
# Streptokinase A = molecular target: T5, Streptokinase A (Streptococcus pyogenes serotype M1, UniProt P10520); test: S. pyogenes streptokinase expression inhibitors, potency, dose response, plasminogen activation absorbance, OD405 (AID 1914); type: functional, Streptococcus pyogenes M1 GAS;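 also: secreted streptokinase activity via plasminogen activation per viability signal from cell pellet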
# T5 sequence (P10520 whole entry): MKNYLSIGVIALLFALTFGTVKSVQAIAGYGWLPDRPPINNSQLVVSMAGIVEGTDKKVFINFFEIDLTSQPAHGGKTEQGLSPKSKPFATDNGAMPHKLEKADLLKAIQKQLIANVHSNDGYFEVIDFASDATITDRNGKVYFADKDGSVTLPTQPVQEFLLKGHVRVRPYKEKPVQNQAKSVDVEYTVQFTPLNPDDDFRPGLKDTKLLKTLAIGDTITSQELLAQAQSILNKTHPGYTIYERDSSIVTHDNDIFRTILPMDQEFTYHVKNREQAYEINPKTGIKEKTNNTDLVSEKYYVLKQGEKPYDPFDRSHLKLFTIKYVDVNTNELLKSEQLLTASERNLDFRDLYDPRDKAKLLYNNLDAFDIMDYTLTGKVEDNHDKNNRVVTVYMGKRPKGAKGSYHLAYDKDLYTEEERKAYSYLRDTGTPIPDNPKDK
# Cytochrome P450 2D6 = Cytochrome P450 2D6 (Homo sapiens, UniProt P10635);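 also: CYP2D6 member of a cytochrome P450 panel assay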
# Cytochrome P450 2D6, sequence (P10635 whole entry): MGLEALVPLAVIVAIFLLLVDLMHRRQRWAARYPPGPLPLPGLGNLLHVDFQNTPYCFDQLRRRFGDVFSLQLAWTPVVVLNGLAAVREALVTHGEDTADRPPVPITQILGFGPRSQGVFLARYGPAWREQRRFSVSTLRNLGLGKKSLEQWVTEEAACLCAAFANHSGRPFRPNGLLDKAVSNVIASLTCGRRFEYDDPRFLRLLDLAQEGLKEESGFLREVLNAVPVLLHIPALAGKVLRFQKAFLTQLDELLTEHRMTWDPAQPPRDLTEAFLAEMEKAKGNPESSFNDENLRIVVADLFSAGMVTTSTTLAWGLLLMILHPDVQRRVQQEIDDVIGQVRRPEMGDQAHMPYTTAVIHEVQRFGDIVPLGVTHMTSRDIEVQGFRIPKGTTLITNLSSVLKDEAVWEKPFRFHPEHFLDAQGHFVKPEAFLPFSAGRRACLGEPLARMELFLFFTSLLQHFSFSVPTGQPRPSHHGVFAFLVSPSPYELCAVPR
# Cytochrome P450 2C9 [14] = molecular target: T1, Cytochrome P450 2C9; remark: listed apart in the source
# [15] = HepG2 cell cytotoxicity, dose response, cytotoxicity control for Shn3 inhibitor project, CellTiter-Glo, cherry-picked (AID 624134); type: functional, cell-based
# [16] = Shn3 3'UTR reporter inhibitors, dose response, cell-based, Clone20 osteoblasts, firefly luciferase, cherry-picked (AID 624132); type: functional;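 also: firefly luciferase luminescence from reporter carrying the Shn3 3'UTR in osteoblasts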
# [17] = control 3'UTR Renilla luciferase suppression, dose response, counter-screen for Shn3 inhibitor project, cell-based, Clone20-Shn3RL, cherry-picked (AID 624133); type: functional
# Nonstructural protein 1, sequence (Q194T2 whole entry): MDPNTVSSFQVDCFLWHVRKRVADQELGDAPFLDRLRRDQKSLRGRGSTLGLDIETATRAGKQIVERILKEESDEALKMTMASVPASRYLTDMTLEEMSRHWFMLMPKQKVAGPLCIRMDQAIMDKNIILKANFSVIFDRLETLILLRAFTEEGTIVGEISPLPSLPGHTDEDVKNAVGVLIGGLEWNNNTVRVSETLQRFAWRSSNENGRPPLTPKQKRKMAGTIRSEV
smiles,measurement,setting,value
CCc1nnc(NC(=O)c2cc(Cl)ccn2)s1,IC50,Nonstructural protein 1,11.1 µM (active)
Nc1ncc(N=Nc2cc(C(=O)O)ccc2Cl)s1,IC50,Genome polyprotein,73.6 µM (active)
same,IC50,Large T antigen,67.1 µM (active)
Cc1cc(C)c2c(c1)-c1cc(C)nn1C(c1cccnc1)N2 (centres undefined),AC50,[1],1.77 µM (active)
CCOc1ccc(NC(=O)CC(NCc2ccccn2)C(=O)O)cc1 (centres undefined),IC50,Nonstructural protein 1,1.28 µM (active)
COc1cccc(CNC(=O)Nc2cccs2)c1,AC50,[1],10.4 µM (active)
CC1Cc2ccccc2N1C(=O)C1CCCCN1S(=O)(=O)c1ccccc1 (centres undefined),AC50,Cytochrome P450 2C9 [2],inconclusive
C/C(=N\NC(=O)c1cccc(N/N=C(\C)c2ccncc2)c1)c1ccncc1,AC50,[1],0.205 µM (active)
CCc1nc(SCc2cccnc2)nc(O)c1C,AC50,[1],0.563 µM (active)
COc1cc(N=Nc2cccc(S(N)(=O)=O)c2)c2ccccc2c1N,IC50,Nonstructural protein 1,14.2 µM (active)
same,AC50,[3],5.37 µM (active)
same,EC50,Protein RecA,11.5 µM (active)
CCCCCC(=O)Nc1ccc(C(=O)N/N=C/c2ccc([N+](=O)[O-])cc2)cc1,EC50,[4],4.99 µM (active)
same,EC50,[5],3.92 µM (active)
Cc1csc(NC(=O)CSc2ccc(-c3ccccn3)nn2)n1,IC50,Nonstructural protein 1,10.2 µM (active)
O=C1OC(c2ccccc2)(c2cc(Br)c(O)c(Br)c2)c2ccccc21 (centres undefined),IC50,Genome polyprotein,35.2 µM (active)
same,AC50,[6],4.1 µM (active)
COc1ccc2c(c1)CC[C@@H]1[C@@H]2CC[C@]2(C)C(=O)CC[C@@H]12,IC50,[7],> 64 µM (inactive)
O=C(Nc1cccc(Cl)c1)Nc1nc(-c2ccc(Cl)cc2)cs1,EC50,[4],94.2 µM (active)
same,EC50,[5],28.1 µM (active)
Cc1ncc(CO)c(/C=N/NC(=O)c2cccc(S(=O)(=O)N3CCCC3)c2)c1O,IC50,Nonstructural protein 1,4.73 µM (active)
same,IC50,[8],> 20 µM (inactive)
Cc1ccc(-c2ccc(/C=N\NC(=O)c3cc4c(ccc5ccccc54)o3)o2)cc1[N+](=O)[O-],EC50,[4],6.21 µM (active)
same,EC50,[5],5.36 µM (active)
COc1cc(CC(=O)Nc2ccc(Cl)c(C(F)(F)F)c2)cc(OC)c1OC,EC50,cells [9],> 350 µM (not active)
same,EC50,cells [10],> 350 µM (not active)
O=C1NC(=S)N(C2CC2)C(=O)/C1=C/NNC(=O)c1ccccc1,IC50,Nonstructural protein 1,12.7 µM (active)
CC1(C)C(=O)N(CCN2CCC(C(=O)c3ccc(F)cc3)CC2)c2ccccc21,AC50,Cytochrome P450 2C9 [2],inconclusive
COc1ccc(C2CC(c3ccccc3)=NN2c2ccc(Cl)c(C(=O)O)c2)cc1 (centres undefined),IC50,Genome polyprotein,39.9 µM (active)
CCC1CCCCN1Cc1c(O)ccc2c(=O)c(-c3ccccc3OC)coc12 (centres undefined),EC50,cells [9],> 350 µM (not active)
same,EC50,cells [10],> 350 µM (not active)
Clc1ccc(-c2ccc(/C=N/Nc3nncc(-c4ccccc4)n3)o2)cc1,EC50,[4],14.5 µM (active)
same,EC50,[5],16.9 µM (active)
CC(=O)Oc1ccc2c(c1)OC(c1ccccc1)CC21CC(C)(C)NC(=S)N1 (centres undefined),IC50,[7],> 64 µM (inactive)
Cc1ccc(Cl)cc1N1CCN(CC(=O)NC2CCCc3ccccc32)CC1 (centres undefined),AC50,[11],5.48 µM (active)
same,CC50,[12],> 40 µM (active)
Cc1ccc(-c2nn(-c3ccccc3)cc2CN(Cc2ccccc2)C(=O)CCC(=O)O)o1,AC50,[1],0.471 µM (active)
C/C(=N\NC(=S)NCC(C)(C)C)c1cc(F)cc(F)c1O,EC50,Streptococcus,2.68 µM (active)
same,CC50,[12],22.9 µM (active)
same,EC50,[13],1.32 µM (active)
same,EC50,Streptokinase A,0.501 µM (active)
COC(=O)C1=C(C)N(Cc2ccccc2)C(NCc2cccc(Cl)c2)=N[C@H]1c1ccccc1,IC50,[8],> 20 µM (inactive)
same,AC50,[11],6.12 µM (active)
same,CC50,[12],18.5 µM (active)
O=C(CCN1CCOCC1)c1ccccc1,EC50,[4],24.8 µM (active)
same,EC50,[5],31.9 µM (active)
O=C(NCCN1CCOCC1)c1nn2c(c1Cl)NC(c1ccccc1)CC2C(F)(F)F (centres undefined),AC50,Cytochrome P450 2D6,35.5 µM (inconclusive)
same,AC50,Cytochrome P450 2C9 [14],35.5 µM (inconclusive)
same,IC50,[7],> 64 µM (inactive)
COC(=O)c1[nH]c2ccc(C)cc2c1NS(=O)(=O)c1ccc(F)cc1,AC50,[1],1.81 µM (active)
Cc1ccc2c(c1)C1CN(C)CCC1N2C(=O)/C(C#N)=C/c1ccc2c(c1)OCO2 (centres undefined),IC50,[8],> 20 µM (inactive)
c1ccc2c(-c3n[nH]cc3CNCCCn3ncc4ccccc43)cccc2c1,AC50,[15],56.7 µM (active)
same,AC50,[16],3.25 µM (active)
same,AC50,[17],4.62 µM (active)
